According to patent publication EP0409236A1, “Optically active naphthylethanol derivative” (Eisai Co., Ltd., priority 1989, dated 1991):
Several values for one entry are separate records, joined by “and”; a condition that tells them apart may be missing. Equal entries are not always repeated. Structures can show the parent of a compound that is named as a salt.

Experiments:
[1] = test system: male ddy mice; test: Effect on KCN-induced mortality in mice; details: mouse, in vivo; hydrochloride
[2] = test system: pyramidal cells in the CA1 region of the gerbil hippocampus; test: Effect on ischemia-induced neuronal damage in the gerbil hippocampus; format: in vivo; details: i.p., one hour before 5-min ischemia, normal pyramidal cells in 0.105 x 1.175 mm² of CA1, one week later
Text: Effect on ischemia-induced neuronal damage in the gerbil hippo- campus
Kirino reported that a brief cerebral ischemia caused the destruction of the pyramidal cells in the CA1 region of the gerbil hippocampus [Brain Res. 239: 57-69 (1982)]. Effect of the compound(B) on this ischemia-induced neuronal damage was examined.
The compounds were intraperitoneally administered to each animal and one hour later 5-min ischemia was produced by clamping both common carotid arteries. One week after the 5-min ischemia gerbils were fixed by transcardiac perfusion of fixative which consisted of 4% formaldehyde in phosphate buffer (pH 7.4). The fixed brain was embedded in paraffin and semi-thin (3 µm) sections were cut at a level of the dorsal hippocampus. The sections were stained with feulgen for cell counting by an image-analyzing computer. Normal pyramidal cells in the area of 0.105 x 1.175 mm² were counted.

Compound | Survival time (sec) mean ± SEM [1] | neuronal density mean ± SEM ([2]; 1 mg/kg) | neuronal density mean ± SEM ([2]; 3 mg/kg) | neuronal density mean ± SEM ([2]; 10 mg/kg) | neuronal density mean ± SEM ([2]; 30 mg/kg)
O=C(c1ccc(F)cc1)C1CCN(C[C@@H](O)c2ccc3ccccc3c2)CC1 [d-isomer of compound (B), hydrochloride] | 52.4 ± 2.4 s and 50.1 ± 1.6 s and 62.5 ± 4.4 s | 9.3 ± 4.6 | 16.5 ± 4.0 | 34.6 ± 1.1 | –
(R)-(-)-2-[4-(p-Fluorobenzoyl)-1-piperidylj-1-naphthylethanol hydrochloride [ℓ-isomer of compound (B)] | 40.2 ± 1.8 s and 43.0 ± 1.8 s and 44.8 ± 1.9 s | – | 1.9 ± 0.5 | 17.2 ± 5.2 | 12.0 ± 3.4
